From patent US6407130B1, “Carboxamide-substituted benzimidazoles having tryptase-inhibiting activity” (Boehringer Ingelheim Pharma KG, priority 1999, dated 2002)
pIC50: −log10 of the molar value. Counter-ions that a name gives are not always drawn.

What follows are compounds tested against T1, rh beta tryptase (Homo sapiens, UniProt Q15661) (assay: tryptase inhibition test (cleavage of N-p-tosyl-Gly-Pro-Lys-para-nitroaniline, p-nitroaniline measured at 405 nm)). Details: Tris HCl buffer pH 7.4 with calcium and heparin; substrate 0.6 mM; 5 minutes' pre-incubation, 5 minutes incubation at 37° C.
T1 construct: purchased Promega
Type: biochemical
Method: The compounds according to the invention are characterised by their tryptase-inhibiting activity. This ability to inhibit tryptase was investigated using the test described as follows. The measurement is carried out in Tris HCl buffer (100 mM), which additionally contains calcium (5 mM) and heparin ([…]), at pH 7.4. The standard used is rh beta tryptase which may be obtained commercially from Promega, for example. The substrate used is N-p-tosyl-Gly-Pro-Lys-para-nitroaniline in a concentration of 0.6 mM. The substrate is digested with tryptase to form p-nitroaniline which can be measured at 405 nm. Usually, an incubation period of 5 minutes and an incubation temperature of 37° C. are chosen. The enzyme activity used is 0.91 U/ml. The measurements are carried out in an Autoanalyser (Cobas Bio) made by Hofmann LaRoche. The potential inhibitory substances are used in concentrations of 10 μM in the screening, the inhibition of the tryptase being given in percent. The IC50 is determined at over 70% inhibition (concentration at which 50% of the enzyme activity is inhibited). After 5 minutes' pre-incubation of the potential inhibitory substances, the substrate is added to start the reaction, the formation of p-nitroaniline being taken as a measurement of the enzyme activity after 5 minutes, after testing the linearity.

T1 sequence (Q15661 31-275): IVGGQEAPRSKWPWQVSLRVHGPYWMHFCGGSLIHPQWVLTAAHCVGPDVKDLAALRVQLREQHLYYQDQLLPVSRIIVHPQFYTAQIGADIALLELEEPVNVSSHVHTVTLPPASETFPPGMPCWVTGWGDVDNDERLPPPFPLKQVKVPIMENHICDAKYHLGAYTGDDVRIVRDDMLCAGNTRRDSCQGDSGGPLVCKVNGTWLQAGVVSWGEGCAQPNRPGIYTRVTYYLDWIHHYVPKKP

SMILES | pIC50
CN(C)CCOCC(=O)N(Cc1cccc2ccccc12)c1ccc2c(c1)nc(CCc1ccc(C(=N)N)cc1)n2C [Example 59, N-{2-[2-(4-Amidinophenyl)-ethyl]-1-methyl-benzimidazol-5-yl}-N-(α-naphthylmethyl)-[2-(2-dimethylaminoethoxy)-acetamide]-dihydrochloride] | 7.18
Cn1c(CCc2ccc(C(=N)N)cc2)nc2cc(N(Cc3ccccc3)C(=O)CCCCNC(=N)N)ccc21 [Example 34, N-{2-[2-(4-Amidinophenyl)-ethyl]-1-methyl-benzimidazol-5-yl}-N-benzyl-[5-guanidino-pentanoic acid amide]-dihydrochloride] | 7.37
Cn1c(CCc2ccc(C(=N)N)cc2)nc2cc(N(Cc3c4ccccc4cc4ccccc34)C(=O)CCC3CCN(Cc4ccccc4)CC3)ccc21 [Example 56, N-{2-[2-(4-Amidinophenyl)-ethyl]-1-methyl-benzimidazol-5-yl}-N-(anthracen-9-ylmethyl)-[3-(1-benzyl-piperidin-4-yl)-propionamide]-dihydro-chloride] | 7.04
Cn1c(CCc2ccc(C(=N)N)cc2)nc2cc(N(Cc3cccc4ccccc34)C(=O)CNCc3ccccc3)ccc21 [Example 62, N-{2-[2-(4-Amidinophenyl)-ethyl]-1-methyl-benzimidazol-5-yl}-N-( - naphthylmethyl)-[2-(N-benzylamino)-acetamide]-dihydrochloride] | 7.54
Cn1c(CCc2ccc(C(=N)N)cc2)nc2cc(N(Cc3cccc4ccccc34)C(=O)CCCCCN)ccc21 [Example 31, N-{2-[2-(4-Amidinophenyl)-ethyl]-1-methyl-benzimidazol-5-yl}-N-( - naphthylmethyl)-[6-amino-hexanoic acid amide]-dihydrochloride] | 7.52
Cn1c(CCc2ccc(C(=N)N)cc2)nc2cc(N(Cc3cccc4ccccc34)C(=O)CCc3ccccn3)ccc21 [Example 68, N-{2-[2-(4-Amidinophenyl)-ethyl]-1-methyl-benzimidazol-5-yl}-N-( - naphthylmethyl)-[3-(pyridin-2-yl)-propionamide]-hydrochloride] | 7.42
CCOC(=O)c1ccc(CNCC(=O)N(Cc2cccc3ccccc23)c2ccc3c(c2)nc(CCc2ccc(C(=N)N)cc2)n3C)cc1 [Example 65, N-{2-[2-(4-Amidinophenyl)-ethyl]-1-methyl-benzimidazol-5-yl}-N-( - naphthylmethyl)-[2-(4-ethylcarboxylatbenzylamino)-acetamide]-dihydrochloride] | 7.57
Cn1c(CCc2ccc(C(=N)N)cc2)nc2cc(N(Cc3ccc4ccccc4c3)C(=O)CCCc3ccc(N)cc3)ccc21 [Example 55, N-{2-[2-(4-Amidinophenyl)-ethyl]-1-methyl-benzimidazol-5-yl}-N-(β-naphthylmethyl)-[4-(4-aminophenyl)-butyroamide]-dihydrochloride] | 6.76
Cn1c(CCc2ccc(C(=N)N)cc2)nc2cc(N(Cc3ccccc3)C(=O)CCC3CCNCC3)ccc21 [Example 7] | 6.97
Cn1c(CCc2ccc(C(=N)N)cc2)nc2cc(N(Cc3cccc4ccccc34)C(=O)CCCN)ccc21 [Example 20, N-{2-[2-(4-Amidinophenyl)-ethyl]-1-methyl-benzimidazol-5-yl}-N-- naphthylmethyl-[4-amino-butanoic acid amide]-dihydrochloride] | 7.41
Cn1c(CCc2ccc(C(=N)N)cc2)nc2cc(N(Cc3cccc4ccccc34)C(=O)CN3CCC[C@H]3C(N)=O)ccc21 [Example 72] | 7.23
Cn1c(CCc2ccc(C(=N)N)cc2)nc2cc(N(Cc3ccncc3)C(=O)CNCc3ccc(N)cc3)ccc21 [Example 74, N-{2-[2-(4-Amidinophenyl)-ethyl]-1-methyl-benzimidazol-5-yl}-N-(-pyridin-4-ylmethyl)-[2-(4-aminobenzylamino)-acetamide]-dihydrochloride] | 7.24
Cn1c(CCc2ccc(C(=N)N)cc2)nc2cc(N(Cc3cccc4ccccc34)C(=O)CCCNC(=N)N)ccc21 [Example 30, N-{2-[2-(4-Amidinophenyl)-ethyl]-1-methyl-benzimidazol-5-yl}-N-( - naphthylmethyl)-[4-guanidino-butanoic acid amide]-dihydrochloride] | 7.49

Stronger by pIC50, values ahead:

pIC50 | SMILES
7.72 | COc1ccccc1N1CCN(CC(=O)N(Cc2cccc3ccccc23)c2ccc3c(c2)nc(CCc2ccc(C(=N)N)cc2)n3C)CC1 [Example 58, N-{2-[2-(4-Amidinophenyl)-ethyl]-1-methyl-benzimidazol-5-yl}-N-( - naphthylmethyl)-[2-(1-(2-methoxyphenyl)-piperazin-4-yl)-acetamide]-dihydrochloride]
7.85 | Cn1c(CCc2ccc(C(=N)N)cc2)nc2cc(N(Cc3cccc4ccccc34)C(=O)CCC3CCN(Cc4ccccc4)CC3)ccc21 [Example 35, N-{2-[2-(4-Amidinophenyl)-ethyl]-1-methyl-benzimidazol-5-yl}-N-( - naphthylmethyl)-[3-(1-benzyl-piperidin-4-yl)-propionamide]-dihydro-chloride]
7.59 | COc1ccc(CNCC(=O)N(Cc2ccc3ccccc3c2)c2ccc3c(c2)nc(CCc2ccc(C(=N)N)cc2)n3C)cc1 [Example 57, N-{2-[2-(4-Amidinophenyl)-ethyl]-1-methyl-benzimidazol-5-yl}-N-(β-naphthylmethyl)-[4-methoxybenzylamino-acetamide]-dihydrochloride]
7.60 | Cn1c(CCc2ccc(C(=N)N)cc2)nc2cc(N(Cc3cccc4ccccc34)C(=O)CNCc3ccccc3N)ccc21 [Example 51, N-{2-[2-(4-Amidinophenyl)-ethyl]-1-methyl-benzimidazol-5-yl}-N-( - naphthylmethyl)-[2-(2-aminobenzylamino)-acetamide]-trihydrochloride]
7.59 | Cn1c(CCc2ccc(C(=N)N)cc2)nc2cc(N(Cc3ccccc3)C(=O)CCc3cccc(C(=N)N)c3)ccc21 [Example 33, N-{2-[2-(4-Amidinophenyl)-ethyl]-1-methyl-benzimidazol-5-yl}-N-benzyl-[3-(3-amidinophenyl)-propionamide]-dihydrochloride]
8.00 | COc1ccc(CNCC(=O)N(Cc2cccc3ccccc23)c2ccc3c(c2)nc(CCc2ccc(C(=N)N)cc2)n3C)cc1 [Example 43, N-{2-[2-(4-Amidinophenyl)-ethyl]-1-methyl-benzimidazol-5-yl}-N-(- naphthylmethyl)-[2-(4-methoxybenzylamino)-acetamide]-dihydrochloride]
7.60 | Cn1c(CCc2ccc(C(=N)N)cc2)nc2cc(N(Cc3cccc4ccccc34)C(=O)CCC3CCN(C(c4ccccc4)c4ccccc4)CC3)ccc21 [Example 64, N-{2-[2-(4-Amidinophenyl)-ethyl]-1-methyl-benzimidazol-5-yl}-N-( - naphthylmethyl)-[3-(1-diphenylmethyl-piperidin-4-yl)-propionamide]-trihydrochloride]
7.74 | CN(C)CCN(C)CC(=O)N(Cc1cccc2ccccc12)c1ccc2c(c1)nc(CCc1ccc(C(=N)N)cc1)n2C [Example 41, N-{2-[2-(4-Amidinophenyl)-ethyl]-1-methyl-benzimidazol-5-yl}-N-(α-naphthylmethyl)-[2-(N-(2-dimethylaminoethyl)-N-methylamino)-acetamide]-trihydrochloride]
7.92 | Cn1c(CCc2ccc(C(=N)N)cc2)nc2cc(N(Cc3cccc4ccccc34)C(=O)CNCc3ccc(-c4ccccc4)cc3)ccc21 [Example 45, N-{2-[2-(4-Amidinophenyl)-ethyl]-1-methyl-benzimidazol-5-yl}-N-( - naphthylmethyl)-[2-(4-phenylbenzylamino)-acetamide]-dihydrochloride]
7.76 | Cn1c(CCc2ccc(C(=N)N)cc2)nc2cc(N(Cc3cccc4ccccc34)C(=O)COCc3ccc([N+](=O)[O-])cc3)ccc21 [Example 75, N-{2-[2-(4-Amidinophenyl)-ethyl]-1-methyl-benzimidazol-5-yl}-N-(-- naphthylmethyl)-[2-(4-nitrobenzyloxy)-acetamide]-hydrochloride]
7.92 | CN(CC(=O)N(Cc1cccc2ccccc12)c1ccc2c(c1)nc(CCc1ccc(C(=N)N)cc1)n2C)Cc1cccc(C(=N)N)c1 [Example 18, N-{2-[2-(4-Amidinophenyl)-ethyl-1-methyl-benzimidazol-5-yl}-N-(- naphthylmethylamino)-N-methyl-N-[3-amidinobenzyl]-acetamide-trihydrochloride]
7.80 | Cn1c(CCc2ccc(C(=N)N)cc2)nc2cc(N(CCC(c3ccccc3)c3ccccc3)C(=O)CCc3ccc(C(=N)N)cc3)ccc21 [Example 10, N-{2-[2-(4-Amidinophenyl)-ethyl]-1-methyl-benzimidazol-5-yl}-N-(3,3-diphenylpropyl)-[3-(4-amidinophenyl)-propionamide]-dihydrochloride]
7.74 | Cn1c(CCc2ccc(C(=N)N)cc2)nc2cc(N(Cc3cccc4ccccc34)C(=O)CN3CCC(O)(Cc4ccccc4)CC3)ccc21 [Example 69, N-{2-[2-(4-Amidinophenyl)-ethyl]-1-methyl-benzimidazol-5-yl}-N-( - naphthylmethyl)-[2-(4-benzyl-4-hydroxypiperidin-1-yl)-acetamide]-dihydrochloride]
7.66 | CN(C)CCNCC(=O)N(Cc1cccc2ccccc12)c1ccc2c(c1)nc(CCc1ccc(C(=N)N)cc1)n2C [Example 76]
